Measured values: patent US8247437B2, “N-hydroxyamide derivatives and use thereof” (Merck Serono SA, priority 2004, dated 2012)
Where two headings read alike, the source gives them in different places.

Legend:
metalloelastase (MMP-12) = metalloelastase (MMP-12) (Homo sapiens, UniProt P39900); experiment: MMP-12 enzyme inhibition assay (coumarin-labelled peptide substrate McaPLGLDpaAR); format: biochemical; settings: read-out: MMP-12 IC50
Experimental: (§1) Stock solutions were made up as follows: Assay Butter: 100 mM Tris-HCl pH 7.6 is containing 100 mM NaCl, 10 mM CaCl2, and 0.05% Brij 35.
(§2) Substrate: 0.4 mM McaPLGLDpaAR (from Bachem) (0.437 mg/ml) stock solution in 100% DMSO (stored at −20° C.). Dilute to 8 μM in assay butter.
(§3) Enzyme: Recombinant human 92 kDa gelatinase (MMP-9; APMA (4-aminophenyl mercuric acetate)-activated if necessary) appropriately diluted in assay butter.
(§4) Test Compounds were prepared initially as 10 mM compound solution in 100% DMSO, diluted to 1 mM in 100% DMSO, then serially diluted 3-fold in 100% DMSO across columns 1-10 of a 96-well microtitre plate Assay concentration range, 100 μM (column 1) to 5.1 nM (column 10).
(§5) The assay was performed in a total volume of 100 μL per well in 96-well microfilm plates. Activated enzyme (20 μL) was added to the wells followed by 20 μL of assay butter. Appropriate concentrations of test compounds dissolved in 10 μL of DMSO were then added followed by 50 μL of McaPLGLDpaAR (8 μM, prepared by dilution of DMSO stock in assay butter). For each as say ten concentrations of test compound were examined in duplicate. Control wells lack either enzyme or test compound. The reactions were incubated at 37° C. for 2 hours. The fluorescence at 405 nm was measured immediately with an SLT Fluostar fluorometer (SL T Labinstruments GmbH, Grödig, Austria) using 320 nm excitation, without stopping the reaction.
(§6) The effect of the test compound was determined from the dose response curve generated by the 10 duplicate concentrations of inhibitor. The IC50 (the concentration of compound required to give a 50% decrease in enzyme activity) was obtained by fitting data to the equation, Y=a+((b−a)/(1+(c/X)^d)). (Y=inhibition achieved for a particular dose; X=the dose in nM; a=minimum y or zero % inhibition; b=maximum y or 100% inhibition; c=is the IC50; d=is the slope). The result was rounded to one significant figure.
Compounds of the invention were tested for inhibitory activity against metalloelastase (MMP-12) in an assay using a coumarin-labelled peptide substrate, (7-methoxycoumarin-4-yl)acetyl-Pro-Leu-Gly-Leu-(3-[2,4-dinitrophenyl]-L-2,3-diaminopropionyl)-Ala-Arg-NH2 (McaPLGLDpaAR) (Knight et al, 1992, above). The protocol for this assay was as described for the MMP-9 assay above.

[1] = target: 92 kDa gelatinase (MMP-9) (Homo sapiens, UniProt P14780); experiment: MMP-9 enzyme inhibition assay (coumarin-labeled peptide substrate McaPLGLDpaAR); format: biochemical; settings: read-out: MMP-9 IC50
Chain of 92 kDa gelatinase (MMP-9) (P14780 107-707 limits assumed): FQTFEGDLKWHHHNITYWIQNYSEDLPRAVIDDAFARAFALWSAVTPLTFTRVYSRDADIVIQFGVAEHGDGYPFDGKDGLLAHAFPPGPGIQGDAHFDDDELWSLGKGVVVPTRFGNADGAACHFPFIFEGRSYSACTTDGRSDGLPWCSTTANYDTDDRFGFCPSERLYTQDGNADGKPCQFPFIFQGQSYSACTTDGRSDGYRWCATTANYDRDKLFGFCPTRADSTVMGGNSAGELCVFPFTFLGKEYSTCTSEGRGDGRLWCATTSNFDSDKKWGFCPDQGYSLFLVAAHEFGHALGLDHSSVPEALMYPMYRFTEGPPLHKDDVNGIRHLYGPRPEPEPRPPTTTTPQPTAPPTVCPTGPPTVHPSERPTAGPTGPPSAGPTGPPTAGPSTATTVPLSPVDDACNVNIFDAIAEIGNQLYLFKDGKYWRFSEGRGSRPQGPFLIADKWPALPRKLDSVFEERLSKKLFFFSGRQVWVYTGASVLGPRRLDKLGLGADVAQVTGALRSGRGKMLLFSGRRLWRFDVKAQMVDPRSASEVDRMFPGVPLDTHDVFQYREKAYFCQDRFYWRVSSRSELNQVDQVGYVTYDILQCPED
Experimental: Compounds of the invention were tested for inhibitory activity against 92 kDa gelatinase (MMP-9) in an assay using a coumarin-labeled peptide substrate, (7-methoxycoumarin-4-yl)acetyl-Pro-Leu-Gly-Leu-(3-[2,4-dinitrophenyl]-L-2,3diaminopropionyl)-Ala-Arg-NH2 (McaPLGLDpaAR) (Knight et al, FEBS Lett. 1992; 263-266).
as §1, §2, §3, §4, §5, §6

gelatinase A (MMP-2) = target: T1, gelatinase A (MMP-2) (Homo sapiens, UniProt P08253); experiment: MMP-2 enzyme inhibition assay (coumarin-labelled peptide substrate McaPLGLDpaAR); format: biochemical; settings: read-out: MMP-2 IC50
T1 sequence (P08253 110-660): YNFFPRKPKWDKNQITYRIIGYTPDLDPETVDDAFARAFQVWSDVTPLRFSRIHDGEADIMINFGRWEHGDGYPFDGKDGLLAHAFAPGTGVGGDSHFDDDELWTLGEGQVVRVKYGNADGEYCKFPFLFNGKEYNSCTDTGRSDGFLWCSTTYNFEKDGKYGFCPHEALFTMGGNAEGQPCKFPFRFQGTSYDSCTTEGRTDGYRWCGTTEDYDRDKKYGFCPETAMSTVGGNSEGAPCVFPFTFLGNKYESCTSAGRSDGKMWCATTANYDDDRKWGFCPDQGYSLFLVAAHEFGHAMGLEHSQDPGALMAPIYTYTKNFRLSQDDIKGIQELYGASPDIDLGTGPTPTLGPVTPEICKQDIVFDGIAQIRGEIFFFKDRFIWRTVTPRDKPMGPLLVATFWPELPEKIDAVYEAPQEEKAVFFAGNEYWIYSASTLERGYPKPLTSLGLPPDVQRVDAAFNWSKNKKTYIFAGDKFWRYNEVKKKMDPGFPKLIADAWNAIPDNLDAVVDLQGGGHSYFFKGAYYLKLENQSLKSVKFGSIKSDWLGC
Experimental: as §1, §2, §3, §4, §5, §6
(§7) Compounds of the invention were tested for inhibitory activity against gelatinase A (MMP-2) in an assay using a coumarin-labelled peptide substrate, (7-methoxycoumarin-4-yl)acetyl-Pro-Leu-Gly-Leu-(3-[2,4-dinitrophenyl]-L-2,3diaminopropionyl)-Ala-Arg-NH2 (Mca PLGLDpaAR) (Knight et al, 1992, above). The protocol for this assay was as described for the MMP-9 assay above.

collagenase (MMP-1) = target: T2, collagenase (MMP-1) (Homo sapiens, UniProt P03956); experiment: MMP-1 enzyme inhibition assay (coumarin-labelled peptide substrate McaPLGLDpaAR); format: biochemical; settings: read-out: MMP-1 IC50
T2 sequence (P03956 100-469): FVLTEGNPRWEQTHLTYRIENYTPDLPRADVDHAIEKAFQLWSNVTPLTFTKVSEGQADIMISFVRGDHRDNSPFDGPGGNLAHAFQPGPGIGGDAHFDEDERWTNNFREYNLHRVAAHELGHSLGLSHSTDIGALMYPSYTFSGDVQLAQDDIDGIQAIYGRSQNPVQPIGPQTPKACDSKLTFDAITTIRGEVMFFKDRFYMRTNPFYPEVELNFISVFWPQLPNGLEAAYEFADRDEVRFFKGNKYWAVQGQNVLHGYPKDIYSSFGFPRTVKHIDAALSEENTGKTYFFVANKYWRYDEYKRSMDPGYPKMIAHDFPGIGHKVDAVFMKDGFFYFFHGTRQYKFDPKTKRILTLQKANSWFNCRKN
Experimental: as §1, §2, §3, §4, §5, §6
as §7, with “collagenase (MMP-1)” for “gelatinase A (MMP-2)”

[2] = test system: IL-2-induced peritoneal recruitment of lymphocytes; experiment: IL-2-induced peritoneal recruitment of lymphocytes; format: in vivo, C3H/HEN mice; settings: mice, dose 1 mg/kg po, 15 min prior to IL-2; cells collected 24 h after IL-2; Table 3, Formula (I)
Experimental: Administration of IL-2 intraperitoneally causes migration of lymphocytes into the intraperitoneal cavity. This is a model for the cellular migration that occurs during inflammation.
C3H/HEN mice (Elevage Janvier, France) were intraperitoneally injected with IL-2 (Serono Pharmaceutical Research Institute, 20 μg/kg, in saline).
Compounds of the invention were suspended in 0.5% carboxymethylcellulose (CMC)/0.25% tween-20 and were administered by s.c. or p.o. route (10 ml/kg) 15 min prior to administration of IL-2.
Twenty-four hours after administration of IL-2, peritoneal white blood cells were collected by 3 successive lavages of the peritoneal cavity with 5 ml phosphate buffered saline (PBS)-1 mM EDTA (+4° C.). The suspension was centrifuged (1700 g×10 min at +4° C.). The resulting pellet was suspended in 1 ml PBS-1 mM EDTA.
Lymphocytes were identified and counted using a Beckman/Coulter counter.
The animals were divided into 6 groups (6 mice each group):
Group 1: (baseline) received 0.5% CMC/0.25% tween-20 (vehicle of compound of the invention) and saline (vehicle of IL-2);
Group 2: (control IL-2) received 0.5% CMC/0.25% tween-20 and injection of IL-2;
Group 3: Experimental group (Compound of the invention Dose 1) received a compound of the invention and injection of IL-2;
Group 4: Experimental group (Compound of the invention Dose 2) received a compound of the invention and injection of IL-2;
Group 5: Experimental group (Compound of the invention Dose 3) received a compound of the invention and injection of IL-2;
Group 6: Reference group received reference compound dexamethasone and injection of IL-2.
Inhibition of lymphocyte recruitment was calculated as follows:
Where Ly 1=Number of lymphocytes in group 1 (E3/μl), Ly 2=Number of lymphocytes in group 2 (E3/μl), Ly X=Number of lymphocytes in group X (3-5) (E3/μl).

[3] = Table 1, compounds of Formula (I)
[4] = Table 2, compounds of Formula (VI)

Chain of metalloelastase (MMP-12) (P39900 106-470): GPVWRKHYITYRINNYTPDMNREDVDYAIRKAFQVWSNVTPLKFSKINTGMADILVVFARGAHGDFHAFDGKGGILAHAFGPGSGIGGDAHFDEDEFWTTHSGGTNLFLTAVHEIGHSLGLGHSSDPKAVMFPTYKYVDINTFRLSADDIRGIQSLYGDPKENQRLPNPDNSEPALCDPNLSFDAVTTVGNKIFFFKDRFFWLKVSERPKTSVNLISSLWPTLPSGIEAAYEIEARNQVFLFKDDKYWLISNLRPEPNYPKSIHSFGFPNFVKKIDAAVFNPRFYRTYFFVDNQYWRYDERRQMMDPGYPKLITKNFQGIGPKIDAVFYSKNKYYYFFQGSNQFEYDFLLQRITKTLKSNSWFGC

SMILES | IC50 (metalloelastase (MMP-12); [3]) [nM] | IC50 [1, 3] [nM] | IC50 (gelatinase A (MMP-2); [3]) [nM] | IC50 (collagenase (MMP-1); [3]) [nM] | % inhibition of IL-2-induced peritoneal recruitment of lymphocytes [2] [%] | IC50 (metalloelastase (MMP-12); [4]) [nM] | IC50 [1, 4] [nM] | IC50 (gelatinase A (MMP-2); [4]) [nM] | IC50 (collagenase (MMP-1); [4]) [nM]
CCOc1ccc(CCCC(C(=O)N2CCN(c3ccccc3F)C[C@H]2C)[C@H](O)C(=O)NO)cc1 (mixture of isomers) [Example 9, (2S,3S)-6-(4-ethoxyphenyl)-3-{[(2R)-4-(2-fluorophenyl)-2-methylpiperazin-1-yl]carbonyl}-N,2-dihydroxyhexanamide] | 33 | 233 | 136 | > 5000 |  |  |  |  | 
CC(C)C[C@H](C(=O)N1CCN(c2ccccn2)CC1)[C@H](O)C(=O)NO [Example 1, (2S,3S)-N,2-dihydroxy-5-methyl-3-{[4-(2-pyridinyl)-1-piperazinyl]carbonyl}hexanamide] | 4 | 5 | 3 | 418 |  |  |  |  | 
CC(C)C[C@H](C(=O)N1CCN(c2nc(-c3ccccc3)ns2)CC1)[C@H](O)C(=O)NO [Example 2, (2S,3S)-N,2-dihydroxy-5-methyl-3-{[4-(3-phenyl-1,2,4-thiadiazol-5-yl)-1-piperazinyl]carbonyl}hexanamide] | 103 | 7 | 17 | 876 |  |  |  |  | 
CC(C)C[C@H](C(=O)N1CCN(c2cc(C(F)(F)F)ccn2)C[C@H]1C)[C@H](O)C(=O)NO [Example 3, (2S,3S)-N,2-dihydroxy-5-methyl-3-({(2R)-2-methyl-4-[4-(trifluoromethyl)pyridin-2-yl]piperazin-1-yl}carbonyl)hexanamide] | 31 | 285 | 42 | > 5000 |  |  |  |  | 
CCOc1ccc(CCC[C@H](C(=O)N2CCN(c3ccccn3)C[C@@H]2C)[C@H](O)C(=O)NO)cc1 [Example 7, (2S,3S)-6-(4-ethoxyphenyl)-N,2-dihydroxy-3-{[(2S)-2-methyl-4-(2-pyridinyl)piperazinyl]carbonyl}hexanamide] |  |  |  |  | 46 |  |  |  | 
COc1ccc(N2CCN(C(=O)[C@@H](CC(C)C)[C@@H](O)C(=O)NO)CC2)cc1 [Example 14, (2R,3S)-N,2-dihydroxy-3-{[4-(4-methoxyphenyl)piperazin-1-yl]carbonyl}-5-methylhexanamide] | 4 | 585 | 89 | > 5000 |  |  |  |  | 
CCOc1ccc(CCC[C@@H](C(=O)N2CCC(Oc3ccccn3)CC2)[C@H](O)C(=O)NO)cc1 [Example 22] |  |  |  |  |  | 17 | 45 | 47 | > 5000
CCOc1ccc(CCC[C@@H](C(=O)N2CCC(Nc3ccc(O)cc3)CC2)[C@H](O)C(=O)NO)cc1 [Example 46, (2S,3R)-6-(4-ethoxyphenyl)-N,2-dihydroxy-3-({4-[(4-hydroxyphenyl)amino]piperidin-1-yl}carbonyl)hexanamide] |  |  |  |  |  | 34 | 133 | 179 | > 5000
CC(C)C[C@H](C(=O)N1CCN(c2noc(-c3ccccc3)n2)CC1)[C@@H](O)C(=O)NO [Example 56, (2R,3S)-N,2-dihydroxy-5-methyl-3-{[4-(5-phenyl-1,2,4-oxadiazol-3-yl)piperazin-1-yl]-carbonyl}hexanamide] | 6 | 41 | 4.8 | > 5000 |  |  |  |  | 
O=C(NO)[C@H](O)[C@H](CCOCc1ccccc1)C(=O)N1CCN(c2ccc(-c3ccccc3)cc2)CC1 [Example 58, 3-[(4-biphenyl-4-ylpiperazin-1-yl)carbonyl]-3,4-dideoxy-1-(hydroxyamino)-5-O-(phenylmethyl)-L-threo-pentose] | 7 | 194 | 38 | > 5000 |  |  |  |  | 
C[C@@H]1CN(c2ccc(OC(F)(F)F)cc2)CCN1C(=O)[C@@H](CC1CCCC1)[C@H](O)C(=O)NO [Example 91, (2S,3S)-3-(cyclopentylmethyl)-N,2-dihydroxy-4-{(2R)-2-methyl-4-[4-(trifluoromethoxy)phenyl]piperazin-1-yl}-4-oxobutanamide] | < 1 | 49 | 3 | 1150 |  |  |  |  | 
